According to patent US9440969B2, “Compounds and methods for kinase modulation, and indications therefor” (PLEXXIKON INC., priority 2009, dated 2016):

Assays:
[1] = test system: COLO205 colon adenocarcinoma (B-Raf V600E mutation); assay: COLO205 cell growth inhibition (ATPlite luminescence); type: cell-based; settings: Homo sapiens, COLO 205, 72 h, COLO205 cells, incubated 3 days with compound
Experimental: Compounds are assessed in a variety of cell based assays. For example human cell lines with B-Raf V600E mutation (A375 melanoma, SKMEL3 melanoma, and COLO205 colon adenocarcinoma), as well as tumorigenic cell lines with wild-type B-RAF (SW620 colon adenocarcinoma) or with Ras mutations (SKMEL2 melanoma and IPC298 melanoma). Similar assays may be used to assess additional tumorigenic cell lines with Ras mutations, including, but not limited to, M202, M207, M243, M244, M296, S117, HCT116, HCT15, DLD1, MiaPaCa, A549, NCI-H23, NCI-H460, HOP62, MDA-MB231, Hs-578T, HL60, MOLT-4, and CCRF-CEM.
On day 1, cells are counted, then centrifuged in a conical tube for 5 minutes at 1000 rpm. The supernatant is removed and cells are re-suspended as follows: • SW620 (ATCC catalog #CCL-27): resuspend in Leibovitz's L-15 medium, 2 mM L-glutamine, 10% fetal bovine serum to 6×10^4 cells/mL. • A375 (ATCC catalog #CRL-1619): resuspend in Dulbecco's modified Eagle's medium, 4 mM L-glutamine, 4.5 g/L D-glucose, 10% fetal bovine serum to 6×10^4 cells/mL. • COLO205 (ATCC catalog #CCL-222): resuspend in RPMI 1640, 2 mM L-glutamine, 1.5 g/L sodium bicarbonate, 4.5 g/L D-glucose, 10 mM HEPES, 1.0 mM sodium pyruvate, 10% fetal bovine serum to 6×10^4 cells/mL. • SKMEL2 (ATCC catalog #HTB-68): resuspend in Minimum Eagle essential medium, 2 mM L-glutamine, 1.5 g/L sodium bicarbonate, 0.1 mM non-essential amino acids, 1.0 mM sodium pyruvate, 10% fetal bovine serum to 6×10^4 cells/mL. • SKMEL3 (ATCC catalog #HTB-69): resuspend in McCoy's 5A medium, 1.5 mM L-glutamine, 15% fetal bovine serum to 6×10^4 cells/mL. • IPC298 (DSMZ catalog #ACC 251): resuspend in RPMI 1640, 2 mM L-glutamine, 10% fetal bovine serum to 6×10^4 cells/mL.
The cells are plated, 50 μL in each well of a 96-well dish (Corning 3610) and incubated at 37° C. in 5% CO2 overnight, cells plated to a final concentration of cells as follows:
On day 2, compound at a maximum concentration of 5 mM is serially diluted 1:3 (e.g. 10 μL with 30 μL dimethyl sulfoxide) for a total of 8 point titration with DMSO as a control. A 1 μL aliquot of each dilution point and control is added to 249 μL growth media and 50 μL is added to a well containing cells, providing 10 μM compound at the maximum concentration point. The cells are incubated for 3 days at 37° C. in 5% CO2.
On day 5, ATPlite 1 step Luminescence Assay System (Perkin Elmer #6016739) is brought to room temperature along with the cell cultures. ATPlite is added 25 μL to each well, shake for 2 minutes, and the cells are incubated at room temperature for 10 minutes, then luminescence is read on Safire reader. The measured luminescence correlates directly with cell number, such that the reading as a function of compound concentration is used to determine the IC50 value.
It is understood that the results of these assays may vary as assay conditions are varied. Inhibition levels determined under the conditions described herein represent a relative activity for the compounds tested under the specific conditions employed. The cell based assays are likely to show variability due to the complexity of the system and the sensitivity thereof to any changes in the assay conditions. […] Results for compounds that are tested and show substantially no inhibition below the highest tested concentration are represented as “-” in the tables below. In some instances, the compounds were not tested in all of the assays, or assay results were not valid, as indicated by NA in the tables below.

[2] = target: B-Raf V600E (Homo sapiens, UniProt P15056, V600E); assay: B-Raf V600E kinase activity assay (AlphaScreen, biotin-MEK1 substrate); settings: 100 μM ATP, 100 nM biotin-MEK1, 45 minutes at room temperature, read-out: Biochemical activity (IC50 μM) V600E
Experimental: (§1) Assays for biochemical and cell based activity are known in the art, for example, as described in PCT publication WO 2007/002433, the disclosure of which is hereby incorporated by reference as it relates to such assays. For example, the biochemical activity IC50 values are determined with respect to inhibition of B-Raf kinase activity, c-Raf-1 kinase activity, or B-Raf V600E kinase activity, where inhibition of phosphorylation of a peptide substrate is measured as a function of compound concentration. Compounds to be tested are diluted in dimethyl sulfoxide to a concentration of 0.1 mM. These are serially diluted 15 μL into 30 μL of dimethyl sulfoxide seven times in 96 well plates for a total of 8 dilution points, and for each dilution point 1 μL is added to a well of an assay plate. Plates are prepared such that each well in a 384 well plate contains 1 μL of compound in 10 μL, volume with 0.1 ng Raf enzyme (i.e. any of B-Raf, c-Raf-1 or B-Raf V600E, Upstate Biotechnology or prepared by methods known to one of skill in the art), 50 mM HEPES, pH 7.0, 50 mM NaCl, 2 mM MgCl2, 1 mM MnCl2, 0.01% Tween-20, 1 mM DTT, and 100 nM biotin-MEK1 as substrate. The reaction is started with addition of 10 μL of 200 μM ATP (i.e. final 100 μM ATP). After incubation of the kinase reaction for 45 minutes at room temperature, 5 μL/well of Stop Solution is added (25 mM Hepes pH 7.5, 100 mM EDTA, 0.01% BSA with donor beads (Streptavidin coated beads, Perkin Elmer), acceptor beads (Protein A coated, Perkin Elmer), and anti phosphor MEK1/2 antibody (CellSignal), each at final concentration 10 μg/mL). The plates are incubated for 3 hours at room temperature and read on Envision reader (Perkin Elmer). Phosphorylation of Mek1 results in binding of the anti-phosphor-MEK1/2 antibody and association of the donor and acceptor beads such that signal correlates with kinase activity. The signal vs. compound concentration is used to determine the IC50.

[3] = target: c-Raf-1 (Homo sapiens, UniProt P04049); assay: c-Raf-1 kinase activity assay (AlphaScreen, biotin-MEK1 substrate); settings: 100 μM ATP, 100 nM biotin-MEK1, 45 minutes at room temperature; read-out: Biochemical activity (IC50 μM) c-Raf-1
Experimental: as §1

[4] = target: B-Raf (Homo sapiens, UniProt P15056); assay: B-Raf kinase activity assay (AlphaScreen, biotin-MEK1 substrate); settings: 100 μM ATP, 100 nM biotin-MEK1, 45 minutes at room temperature; read-out: Biochemical activity (IC50 μM) B-Raf
Experimental: as §1

[5] = Relative solubility by turbidity in aqueous buffers (pH 1.5, 4.5, 6.8, 7.4); type: physicochemical; settings: for turbidity threshold (L, M, H) 1.4: pH 1.5 buffer (SGF); for turbidity threshold (L, M, H) 4.5: pH 4.5 buffer (SIF); for turbidity threshold (L, M, H) 6.8: pH 6.8 buffer (SIF); for turbidity threshold (L, M, H) 7.4: pH 7.4 buffer (HEPES)
Summary of the method: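 2-fold DMSO dilution series from 25 mM stocks were added to SGF (0.5M NaCl, pH 1.5), SIF (0.05M NaH2PO4, pH 4.5/6.8) or HEPES (10 mM, 150 mM NaCl, pH 7.4). Absorbance at 490, 535 and 650 nm; value is the concentration crossing OD 0.01, averaged over wavelengths. Low <31.3 μM, moderate 31.3–250 μM, high >250 μM.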

Chain of B-Raf V600E (P15056 whole entry V600E): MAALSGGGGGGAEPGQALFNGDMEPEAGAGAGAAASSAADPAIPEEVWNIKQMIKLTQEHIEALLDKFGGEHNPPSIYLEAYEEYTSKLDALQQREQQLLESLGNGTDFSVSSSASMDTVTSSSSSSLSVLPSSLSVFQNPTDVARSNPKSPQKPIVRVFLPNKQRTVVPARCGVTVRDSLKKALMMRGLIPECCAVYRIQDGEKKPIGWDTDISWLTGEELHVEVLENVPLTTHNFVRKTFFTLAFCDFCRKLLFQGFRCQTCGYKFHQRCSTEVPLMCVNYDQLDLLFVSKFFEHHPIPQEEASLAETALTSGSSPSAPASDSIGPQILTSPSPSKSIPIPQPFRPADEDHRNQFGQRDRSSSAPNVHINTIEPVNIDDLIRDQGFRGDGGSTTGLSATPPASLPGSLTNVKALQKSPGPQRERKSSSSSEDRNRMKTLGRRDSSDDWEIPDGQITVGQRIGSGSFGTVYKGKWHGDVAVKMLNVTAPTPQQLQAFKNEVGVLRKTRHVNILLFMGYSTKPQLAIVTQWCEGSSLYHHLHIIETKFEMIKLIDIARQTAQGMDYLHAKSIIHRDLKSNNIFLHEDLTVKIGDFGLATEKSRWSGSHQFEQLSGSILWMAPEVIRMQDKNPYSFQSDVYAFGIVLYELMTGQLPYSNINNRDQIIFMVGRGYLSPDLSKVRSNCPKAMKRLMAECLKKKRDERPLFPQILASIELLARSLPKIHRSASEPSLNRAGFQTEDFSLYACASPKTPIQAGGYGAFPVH
Chain of B-Raf (P15056 whole entry): as the sequence (P15056 whole entry V600E) above, with E600V counted along it
Chain of c-Raf-1 (P04049 whole entry Y340D/Y341D, form open): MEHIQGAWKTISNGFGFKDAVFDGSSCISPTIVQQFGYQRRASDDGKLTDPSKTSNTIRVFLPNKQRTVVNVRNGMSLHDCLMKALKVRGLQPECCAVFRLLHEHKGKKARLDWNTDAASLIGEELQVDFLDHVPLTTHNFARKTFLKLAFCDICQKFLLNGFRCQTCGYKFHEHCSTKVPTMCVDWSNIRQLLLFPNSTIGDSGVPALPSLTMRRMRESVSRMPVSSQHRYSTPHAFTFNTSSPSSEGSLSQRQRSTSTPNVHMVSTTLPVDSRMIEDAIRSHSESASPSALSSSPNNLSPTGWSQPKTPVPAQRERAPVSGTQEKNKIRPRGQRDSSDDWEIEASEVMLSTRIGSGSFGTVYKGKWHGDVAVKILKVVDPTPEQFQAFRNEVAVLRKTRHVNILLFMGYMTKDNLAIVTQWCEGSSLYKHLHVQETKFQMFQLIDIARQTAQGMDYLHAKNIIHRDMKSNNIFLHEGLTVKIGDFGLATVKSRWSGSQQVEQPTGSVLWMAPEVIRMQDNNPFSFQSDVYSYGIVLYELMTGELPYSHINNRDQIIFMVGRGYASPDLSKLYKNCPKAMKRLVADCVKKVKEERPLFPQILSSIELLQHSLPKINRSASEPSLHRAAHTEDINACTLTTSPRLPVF

Row | Structure (SMILES) | IC50 [1] | IC50 [2] | IC50 [3] | IC50 [4] | turbidity threshold (L, M, H) 1.4 [5] | turbidity threshold (L, M, H) 4.5 [5] | turbidity threshold (L, M, H) 6.8 [5] | turbidity threshold (L, M, H) 7.4 [5]
1 | CCCS(=O)(=O)Nc1ccc(F)c(C(=O)c2c[nH]c3ncc(-c4cccc5[nH]ncc45)cc23)c1F [P-0009, Propane-1-sulfonic acid {2,4-difluoro-3-[5-(1H-indazol-4-yl)-1H-pyrrolo[2,3-b]pyridine-3-carbonyl]-phenyl}-amide] | < 1 µM | < 1 µM | < 1 µM | < 1 µM |  |  |  | 
2 | CCCS(=O)(=O)Nc1ccc(F)c(C(=O)c2c[nH]c3ncc(-c4ccc5scnc5c4)cc23)c1F [P-0013, Propane-1-sulfonic acid [3-(5-benzothiazol-5-yl-1H-pyrrolo[2,3-b]pyridine-3-carbonyl)-2,4-difluoro-phenyl]-amide] | < 1 µM | < 0.1 µM | < 0.1 µM | < 0.1 µM |  |  |  | 
3 | CCCS(=O)(=O)Nc1ccc(F)c(C(=O)c2c[nH]c3ncc(-c4ccc5nccnc5c4)cc23)c1F [P-0014, Propane-1-sulfonic acid [2,4-difluoro-3-(5-quinoxalin-6-yl-1H-pyrrolo[2,3-b]pyridine-3-carbonyl)-phenyl]-amide] | < 1 µM | < 0.1 µM | < 0.1 µM | < 0.1 µM |  |  |  | 
4 | CCCS(=O)(=O)Nc1ccc(F)c(C(=O)c2c[nH]c3ncc(-c4cccc5[nH]ccc45)cc23)c1F [P-0019, Propane-1-sulfonic acid {2,4-difluoro-3-[5-(1H-indol-4-yl)-1H-pyrrolo[2,3-b]pyridine-3-carbonyl]-phenyl}-amide] | > 1 µM | < 0.1 µM | < 0.1 µM | < 0.1 µM |  |  |  | 
5 | CCCS(=O)(=O)Nc1ccc(F)c(C(=O)c2c[nH]c3ncc(-c4cn5ccccc5n4)cc23)c1F [P-0021, Propane-1-sulfonic acid [2,4-difluoro-3-(5-imidazo[1,2-a]pyridin-2-yl-1H-pyrrolo[2,3-b]pyridine-3-carbonyl)-phenyl]-amide] | < 1 µM | < 0.1 µM | < 0.1 µM | < 0.1 µM |  |  |  | 
6 | CCCS(=O)(=O)Nc1ccc(F)c(C(=O)c2c[nH]c3ncc(-c4cn5ccc(C(F)(F)F)nc5n4)cc23)c1F [P-0022, Propane-1-sulfonic acid {2,4-difluoro-3-[5-(7-trifluoromethyl-imidazo[1,2-a]pyrimidin-2-yl)-1H-pyrrolo[2,3-b]pyridine-3-carbonyl]-phenyl}-amide] | > 1 µM | < 0.1 µM | < 0.1 µM | < 0.1 µM |  |  |  | 
7 | CCCS(=O)(=O)Nc1ccc(F)c(C(=O)c2c[nH]c3ncc(-c4ccc5[nH]nc(C)c5c4)cc23)c1F [P-0024, Propane-1-sulfonic acid {2,4-difluoro-3-[5-(3-methyl-1H-indazol-5-yl)-1H-pyrrolo[2,3-b]pyridine-3-carbonyl]-phenyl}-amide] | < 1 µM | < 0.1 µM | < 0.1 µM | < 0.1 µM |  |  |  | 
8 | CCCS(=O)(=O)Nc1ccc(F)c(C(=O)c2c[nH]c3ncc(-c4cnn(-c5ncccn5)c4)cc23)c1F [P-1005, Propane-1-sulfonic acid {2,4-difluoro-3-[5-(1-pyrimidin-2-yl-1H-pyrazol-4-yl)-1H-pyrrolo[2,3-b]pyridine-3-carbonyl]-phenyl}-amide] | < 1 µM | < 0.1 µM | < 0.1 µM | < 0.1 µM |  |  |  | 
9 | CCCS(=O)(=O)Nc1ccc(F)c(C(=O)c2c[nH]c3ncc(-c4cnn(-c5nnn[nH]5)c4)cc23)c1F [P-1008, Propane-1-sulfonic acid (2,4-difluoro-3-{5-[1-(1H-tetrazol-5-yl)-1H-pyrazol-4-yl]-1H-pyrrolo[2,3-b]pyridine-3-carbonyl}-phenyl)-amide] | > 1 µM | < 0.1 µM | < 0.1 µM | < 0.1 µM |  |  |  | 
10 | CONC(=O)c1cccc(-c2cnc3[nH]cc(C(=O)c4c(F)ccc(NS(=O)(=O)c5cc(F)ccc5F)c4F)c3c2)c1 [P-1704, 3-{3-[3-(2,5-Difluoro-benzenesulfonylamino)-2,6-difluoro-benzoyl]-1H-pyrrolo[2,3-b]pyridin-5-yl}-N-methoxy-benzamide] |  | < 0.1 µM | < 0.1 µM | < 0.1 µM | L (low solubility if the threshold concentration is <31.3 μM) | L (low solubility if the threshold concentration is <31.3 μM) | L (low solubility if the threshold concentration is <31.3 μM) | L (low solubility if the threshold concentration is <31.3 μM)
11 | CONC(=O)c1ccc(-c2cnc3[nH]cc(C(=O)c4c(F)ccc(NS(=O)(=O)c5cc(F)ccc5F)c4F)c3c2)cc1 [P-1705, 4-{3-[3-(2,5-Difluoro-benzenesulfonylamino)-2,6-difluoro-benzoyl]-1H-pyrrolo[2,3-b]pyridin-5-yl}-N-methoxy-benzamide] |  | < 0.1 µM | < 0.1 µM | < 0.1 µM | M (moderate solubility if the threshold concentration is 31.3 μM to 250 μM) | L (low solubility if the threshold concentration is <31.3 μM) | L (low solubility if the threshold concentration is <31.3 μM) | L (low solubility if the threshold concentration is <31.3 μM)
